Laboratory results taken from the supplement of paper PMC10307832.

Tests used:
Assay in all cases: relative viability (nuclei count vs DMSO), 5 days (fraction); higher = more cells survive
Vorinostat = compound: O=C(CCCCCCC(=O)Nc1ccccc1)NO [Vorinostat]
Summary of the method: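 Cells of lung cancer lines were placed in 1536-well plates and kept overnight at 37 °C. Pinning then delivered five library-drug doses (not always all listed), spaced by √10, onto plates anchored with vehicle, and the cells were left 5 days without changing medium. One step fixed, permeabilised and stained them with Hoechst, and MetaXpress counted nuclei in 4× images. Viability, as a median over plates, is treated-well nuclei divided by vehicle-well nuclei, with acceptance only at control CV below 25% and at least one doubling.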

Vorinostat + Tozasertib = compound: O=C(CCCCCCC(=O)Nc1ccccc1)NO [Vorinostat] + Cc1cc(Nc2cc(N3CCN(C)CC3)nc(Sc3ccc(NC(=O)C4CC4)cc3)n2)n[nH]1 [Tozasertib] (partner 0.1 µM)
Summary of the method: (§1)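 Lung cancer cell lines, seeded in 1536-well plates, were treated the following day by pin tool with a single drug or with five library-drug doses (not always all listed) in √10 steps on top of a fixed anchor-drug dose. Cells were fixed and nuclei stained in one step after 5 days, and nuclei were counted. Relative viability is the nuclei count for treated wells divided by that for vehicle wells, reported as medians of duplicate plates.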

Vorinostat + Linsitinib = compound: O=C(CCCCCCC(=O)Nc1ccccc1)NO [Vorinostat] + C[C@]1(O)C[C@@H](c2nc(-c3ccc4ccc(-c5ccccc5)nc4c3)c3c(N)nccn32)C1 [Linsitinib] (partner 1 µM)
Summary of the method: as §1

Vorinostat + OSI-027 = compound: O=C(CCCCCCC(=O)Nc1ccccc1)NO [Vorinostat] + COc1cccc2cc(-c3nc([C@H]4CC[C@H](C(=O)O)CC4)n4ncnc(N)c34)[nH]c12 [OSI-027] (partner 0.5 µM)
Summary of the method: as §1

Row | Cell Line | relative viability (Vorinostat; 0.253 µM) | relative viability (Vorinostat; 0.8 µM) | relative viability (Vorinostat; 1 µM, anchor plate) | relative viability (Vorinostat; 2.53 µM) | relative viability (Vorinostat; 8 µM) | relative viability (Vorinostat + Tozasertib; first compound 0.253 µM) | relative viability (Vorinostat + Tozasertib; first compound 0.8 µM) | relative viability (Vorinostat + Tozasertib; first compound 2.53 µM) | relative viability (Vorinostat + Tozasertib; first compound 8 µM) | relative viability (Vorinostat + Linsitinib; first compound 0.253 µM) | relative viability (Vorinostat + Linsitinib; first compound 0.8 µM) | relative viability (Vorinostat + Linsitinib; first compound 2.53 µM) | relative viability (Vorinostat + Linsitinib; first compound 8 µM) | relative viability (Vorinostat + OSI-027; first compound 0.253 µM) | relative viability (Vorinostat + OSI-027; first compound 0.8 µM) | relative viability (Vorinostat + OSI-027; first compound 2.53 µM) | relative viability (Vorinostat + OSI-027; first compound 8 µM)
1 | NCI-H322M | 1.17 | 0.87 | 0.915 | 0.6 | 0.385 | 0.51 | 0.496 | 0.381 | 0.298 | 1.04 | 1.01 | 0.51 | 0.275 | 0.584 | 0.502 | 0.32 | 0.235
2 | NCI-H358 | 1.33 | 1.05 | 0.697 | 0.255 | 0.118 | 0.128 | 0.11 | 0.0949 | 0.0726 | 0.969 | 0.83 | 0.219 | 0.156 | 1.14 | 0.793 | 0.189 | 0.0874
3 | NCI-H441 | 1.13 | 1.05 | 0.773 | 0.418 | 0.18 | 0.607 | 0.529 | 0.3 | 0.194 | 0.501 | 0.619 | 0.255 | 0.117 | 0.705 | 0.576 | 0.229 | 0.194
4 | NCI-H460 | 1.09 | 0.955 | 0.715 | 0.144 | 0.0458 | 0.593 | 0.0486 | 0.0314 | 0.0259 | 0.902 | 0.544 | 0.0315 | 0.0069 | 0.821 | 0.484 | 0.0397 | 0.0148
5 | NCI-H520 | 1.35 | 0.955 | 0.745 | 0.503 | 0.175 | 0.422 | 0.37 | 0.207 | 0.209 | 1.15 | 0.841 | 0.293 | 0.12 | 0.361 | 0.265 | 0.204 | 0.217
6 | NCI-H596 | 1.03 | 0.799 | 0.621 | 0.797 | 0.311 | 0.839 | 0.819 | 0.378 | 0.183 | 1.02 | 1.04 | 0.677 | 0.335 | 0.843 | 0.36 | 0.637 | 0.293
7 | NCI-H647 | 1.16 | 0.731 | 0.539 | 0.199 | 0.0541 | 0.279 | 0.183 | 0.078 | 0.0319 | 1.24 | 0.959 | 0.294 | 0.0525 | 0.777 | 0.526 | 0.19 | 0.0491
8 | NCI-H650 | 0.939 | 0.792 | 0.457 | 0.481 | 0.158 | 0.686 | 0.421 | 0.154 | 0.136 | 1.13 | 0.52 | 0.205 | 0.152 | 0.514 | 0.458 | 0.175 | 0.129
9 | NCI-H661 | 1.11 | 0.974 | 0.8 | 0.548 | 0.351 | 0.342 | 0.262 | 0.249 | 0.269 | 0.759 | 0.752 | 0.298 | 0.184 | 0.79 | 0.665 | 0.297 | 0.245
10 | NCI-H727 | 1.11 | 0.813 | 1.19 | 0.514 | 0.31 | 0.545 | 0.56 | 0.315 | 0.362 | 0.236 | 0.351 | 0.15 | 0.289 | 0.682 | 0.574 | 0.477 | 0.393
11 | NCI-H838 | 1.15 | 1.03 | 0.763 | 0.565 | 0.191 | 0.263 | 0.227 | 0.172 | 0.111 | 1.19 | 1.08 | 0.459 | 0.172 | 0.531 | 0.508 | 0.298 | 0.137
12 | NCI-H1355 | 1.16 | 0.852 | 0.673 | 0.598 | 0.192 | 0.529 | 0.315 | 0.188 | 0.129 | 0.917 | 0.707 | 0.451 | 0.139 | 0.442 | 0.309 | 0.228 | 0.164
13 | NCI-H1395 | 0.91 | 0.919 | 0.834 | 0.631 | 0.387 | 1.02 | 0.682 | 0.456 | 0.324 | 1.31 | 1.22 | 0.725 | 0.344 | 0.647 | 0.597 | 0.418 | 0.352
14 | NCI-H1437 | 1.04 | 0.831 | 0.861 | 0.421 | 0.184 | 0.371 | 0.338 | 0.18 | 0.104 | 1.19 | 0.789 | 0.138 | 0.0938 | 0.934 | 0.467 | 0.197 | 0.146
15 | NCI-H1651 | 1.01 | 0.928 | 0.579 | 0.203 | 0.0791 | 0.609 | 0.326 | 0.153 | 0.0653 | 1.01 | 0.762 | 0.0741 | 0.0616 | 1 | 0.607 | 0.195 | 0.0644
